# Results: the NIST ThermoML archive (doi:10.1021/acs.jced.5b00436)
# ± gives the expanded uncertainty stated by the source.
# Experiment: refractive index (Na D-line) (dimensionless)
# Conditions: 293.15 K; 101.33 kPa; Liquid; Standard Abbe refractometry
row,refractive index,Compound
1,1.3171 ± 0.0005,"OCC(F)(F)C(F)(F)C(F)(F)C(F)F [2,2,3,3,4,4,5,5-octafluoro-1-pentanol]"
2,1.3616 ± 0.0005,CCO [ethanol]
3,1.3328 ± 0.0005,O [water]
